What was measured:
Solubility = format: physicochemical
[1] = test system: metallo proteinase produced by Pseudomonas aeruginosa; assay: inhibitory activity against metallo proteinase of Pseudomonas aeruginosa (casein digestion); format: biochemical
Description: (§1) A mixture of 0.25 ml of sample solution in 0.05 M phosphate buffer at pH 7.5 and 0.25 ml of thermolysin solution (20 μg/ml in the same buffer was incubated for 10 minutes at 37° C. The mixture was added with 1.5 ml of 1.33% Hammarsten casein solution in 0.1M phosphate buffer (pH 7.0) and incubated for 10 minutes at 37° C. By the addition of 2 ml of 0.44 M trichloroacetic acid the reaction was stopped. After standing for 30 minutes at 37° C., the reaction mixture was filtered. To 1.0 ml of the filtrate 5 ml of 0.55 M Na2 CO3 and 1 ml of 2 times diluted Folin-Ciocaltean reagent were added. After standing for 60 minutes at 37° C., the absorbance (Is) was measured at 660 mμ. The blank value (Ib) was taken by carrying out the reaction using 0.25 ml of 0.05M phosphate buffer (pH 7.5) instead of thermolysin. […] Inhibition rate against enzyme activity is calculated by the following equation: [formula] Now, inhibitory activity against metallo proteinase produced by Pseudomonas aeruginosa can be measured in the same manner as above wherein amounts of enzyme used is established so as to have following value. A value of (Es-Eb) according to method for measuring inhibitory activity is 0.6 wherein cell length used for the measurement of absorbance is 1 cm.

trypsin = target: T1, trypsin (Bos taurus, UniProt P00760); assay: inhibitory activity against trypsin; format: biochemical
T1 sequence (P00760 24-246): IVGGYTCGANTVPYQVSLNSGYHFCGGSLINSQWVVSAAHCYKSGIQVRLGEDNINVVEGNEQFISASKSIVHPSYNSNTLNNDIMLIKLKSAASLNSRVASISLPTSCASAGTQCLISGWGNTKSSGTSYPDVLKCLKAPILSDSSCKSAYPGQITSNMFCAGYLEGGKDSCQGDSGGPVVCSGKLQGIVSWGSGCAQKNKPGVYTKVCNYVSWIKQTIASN

[2] = test system: metallo proteinase produced by Aspergillus oryzae; assay: inhibitory activity against metallo proteinase of Aspergillus oryzae; format: biochemical
pepsin = pepsin (Sus scrofa, UniProt P00791); assay: inhibitory activity against pepsin; format: biochemical
Sequence of pepsin (P00791 60-385): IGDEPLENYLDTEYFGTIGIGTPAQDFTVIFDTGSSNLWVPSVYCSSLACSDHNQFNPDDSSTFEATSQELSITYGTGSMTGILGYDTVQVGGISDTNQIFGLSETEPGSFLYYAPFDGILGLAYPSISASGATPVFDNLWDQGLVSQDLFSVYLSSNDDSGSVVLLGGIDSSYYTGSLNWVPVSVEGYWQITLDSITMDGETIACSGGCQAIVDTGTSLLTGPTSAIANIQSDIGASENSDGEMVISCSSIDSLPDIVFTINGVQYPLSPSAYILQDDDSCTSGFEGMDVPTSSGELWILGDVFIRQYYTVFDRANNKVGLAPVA

thermolysin = thermolysin (Bacillus thermoproteolyticus, UniProt P00800); assay: inhibitory activity against thermolysin (casein digestion, Folin reagent); format: biochemical, genus Bacillus
Sequence of thermolysin (P00800 233-548): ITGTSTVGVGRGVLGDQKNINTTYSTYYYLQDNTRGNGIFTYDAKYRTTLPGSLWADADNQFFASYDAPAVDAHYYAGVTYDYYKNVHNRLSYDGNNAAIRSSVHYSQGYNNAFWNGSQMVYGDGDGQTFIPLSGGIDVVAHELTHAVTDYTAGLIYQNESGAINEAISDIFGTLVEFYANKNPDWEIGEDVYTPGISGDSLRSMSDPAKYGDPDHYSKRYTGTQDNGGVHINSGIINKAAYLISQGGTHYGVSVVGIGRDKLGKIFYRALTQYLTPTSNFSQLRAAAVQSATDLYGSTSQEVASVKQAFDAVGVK
Description: as §1

subtilis = assay: inhibitory activity against subtilis; format: biochemical
papain = target: T2, papain (Carica papaya, UniProt P00784); assay: inhibitory activity against papain; format: biochemical
T2 sequence (P00784 134-345): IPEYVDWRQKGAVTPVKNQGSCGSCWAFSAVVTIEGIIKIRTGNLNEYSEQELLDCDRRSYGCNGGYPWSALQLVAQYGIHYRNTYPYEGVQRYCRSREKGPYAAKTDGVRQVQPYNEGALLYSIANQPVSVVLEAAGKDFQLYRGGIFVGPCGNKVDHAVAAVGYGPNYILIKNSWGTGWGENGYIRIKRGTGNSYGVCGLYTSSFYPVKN

[3] = Stability in aqueous solution; format: physicochemical
chymotrypsin = chymotrypsin (Bos taurus, UniProt P00766); assay: inhibitory activity against chymotrypsin; format: biochemical
[4] = amount of compound in the assay

CC(C)C[C@H](NP(=O)(O)OC1O[C@@H](C)[C@@H](O)[C@@H](O)[C@H]1O)C(=O)N[C@@H](Cc1c[nH]c2ccccc12)C(=O)O (stereo partly drawn) [novel tryptophan derivative, N-(6-deoxy-L-talosyloxy hydroxyphosphinyl)-L-leucyl-L-tryptophan]
Solubility (Solubility; benzene): Insoluble | Solubility (Solubility; chloroform): Insoluble | Solubility (Solubility; ethanol): Soluble | Solubility (Solubility; ether): Insoluble | Solubility (Solubility; hexane): Insoluble | Solubility (Solubility; methanol): Soluble | Solubility (Solubility; water): Soluble | inhibiting activity (in words) [1]: strongly inhibits | Amount necessary for inhibiting 50% of the enzyme activity [1, 4]: 4 µg | inhibiting activity (in words) (trypsin): does not inhibit | inhibiting activity (in words) [2]: inhibits | inhibiting activity (in words) (pepsin): does not inhibit | inhibiting activity (in words) (thermolysin): strongly inhibits | Amount necessary for inhibiting 50% of the enzyme activity (thermolysin; [4]): 0.35 µg | inhibiting activity (in words) (subtilis): does not inhibit | inhibiting activity (in words) (papain): does not inhibit | Stability ([3]; acidic aqueous solution): Unstable | Stability (remaining activity) ([3]; standing for 24 hours at pH 1): Activity is lost completely | Stability ([3]; weak acidic, neutral, or alkaline aqueous solution): Stable | inhibiting activity (in words) (chymotrypsin): does not inhibit

Reference: US4382888A, “Tryptophan derivative and process for production thereof” (Ajinomoto Company Incorporated, priority 1978, dated 1983)
